Assays:
[1] = tested on: high-fat diet-induced obesity model mice; test: Sirius Red staining and collagen amount in mouse tissue; format: in vivo; conditions: HPH-15 10 mg/kg or 100 mg/kg, metformin 300 mg/kg, orally 28 days, Western blotting
Description: High-fat diet-induced obesity model mice were prepared in the same manner as in Example 7. Then, HPH-15 (10 mg/kg or 100 mg/kg, […]) dissolved in olive oil or metformin (300 mg/kg, […]) was orally administered once a day for 28 days. Olive oil alone was administered as a control. After 28 days of administration of each, the liver and the epididymal fat of the high-fat diet-induced obesity model mice were stained with Sirius Red and observed using a microscope.
Further, high-fat diet-induced obesity model mice were prepared in the same manner as in Example 7. Then, HPH-15 (10 mg/kg or 100 mg/kg, […]) dissolved in olive oil or metformin (300 mg/kg, […]) was orally administered once a day for 28 days. Olive oil alone was administered as a control. After 28 days of administration of each, equal amounts (50 mg) of tissue pieces were collected from the liver and epididymal adipose tissues of the high-fat diet-induced obesity model mice, transferred to 1.5 mL Eppendorf tubes, and washed twice with PBS. After washing, the tissue pieces were transferred to BIOMASHER II, […] of RIPA buffer was added, and the tissue pieces were homogenized on ice. After homogenization, the tissue pieces were centrifuged (10,000 rpm, 4° C., 5 min) and the supernatant was obtained as a protein solution. The concentration of the proteins thus obtained was corrected based on the protein concentration measured by the BCA method using bicinchoninic acid (BCA), thereby preparing samples for Western blotting. Western blotting was quantified using ImageJ to calculate the amount of collagen.

[2] = tested on: high-fat diet-induced obesity model mice; test: H&E staining of mouse tissue; format: in vivo; conditions: metformin 300 mg/kg orally 28 days; compared to control
Description: High-fat diet-induced obesity model mice were prepared in the same manner as in Example 7. Note that the high-fat diet-induced obesity model mice develop liver damage and are thus used as a liver disease model. Then, HPH-15 (10 mg/kg or 100 mg/kg, […]) dissolved in olive oil or metformin (300 mg/kg, […]) was orally administered once a day for 28 days. Olive oil alone was administered as a control. After administration of each for 28 days, the liver, epididymis, and muscle of the high-fat diet-induced obesity model mice were stained with H&E and observed using a microscope. The results of H&E staining of the liver are shown in FIG. 12A, the results of H&E staining of the epididymis are shown in FIG. 12B, and the results of H&E staining of the muscle are shown in FIG. 12C.

CN(C)C(=N)N=C(N)N [metformin, reference compound]
amount of collagen in the epididymal adipose tissue [1]: no collagen-reducing effect was confirmed | amount of collagen in the liver tissue [1]: no collagen-reducing effect was confirmed | fat area (H&E) [2]: only slightly reduced the fat area
